Results published in publication PMC9019100, “Development of NanoLuc-targeting protein degraders and a universal reporter system to benchmark tag-targeted degradation platforms” (Nature Communications, 2022).
Several values for one entry are separate records, joined by “and”; a condition that tells them apart may be missing. Identical values can stand only once. Like-named read-outs stand apart in the source and are kept apart here.

Legend:
wild-type HT29 cells = assay: Necroptosis assay (PI exclusion, flow cytometry), wild-type HT29 cells, TNF+SM+IDN; type: cell-based, human; details: sheet S5G
Outline: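 HT29 cells were pretreated 5 h with 500 nM degrader or DMSO, then stimulated 24 h with TNF (100 ng/mL), Smac mimetic compound A (500 nM–1 µM) and emricasan (IDN, 5 µM). Cell death was scored by flow cytometry as PI uptake (10 μg/mL PI, 10,000 events/sample), N = 3 replicates.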

[1] = tested on: MLKL^−/− HT29 cells expressing untagged MLKL; type: cell-based; details: MLKL-/- + MLKL, TNF+911+zVAD, replicate columns
Procedure: Cell death was assessed by flow cytometric analysis of PI exclusion. […] Cell death was assessed by flow cytometric analysis of PI exclusion. […] Cell death was assessed by flow cytometric analysis of PI exclusion. e N = 4, f N = 3 independent experiments (symbols), EB represent mean ± SD. g Western from MLKL^−/−CASP8^−/− HT29 cells stably expressing the doxycycline-inducible C-terminal fusion protein, MLKL-NanoLuc (MLKL-NLuc) and constitutively expressing the C-terminal fusion protein caspase-8-FKBP^F36V. […] Cell death was assessed using an IncuCyte and Cytotox-Red uptake. N = 3 independent experiments, one representative experiment shown, EB represent mean ± SD.
Degrader compounds or a DMSO vehicle control were added for 5 h, as stated in the Fig. legends. Cells were detached using Trypsin-EDTA (Merck) and resuspended in cell supernatants containing 10 μg/mL propidium iodide (PI). PI exclusion analysis was performed using an LSR II flow cytometer (Becton Dickinson, NJ) with 10,000 single-cell events per sample. Flow cytometry data were analysed using WEASEL version 2.7 software (Frank Battye).

[2] = target: T1, Halo-EGFP-NanoLuc-FKBP^F36V (H-E-N-F) fusion protein (UniProt P0A3G2+P62942+Q9GV45, A155T/A167V/A172T/A224E/A31E/A60N/A81I/C128F/C176G/D78G/E160K/E257K/F37V/F95D/H272N/I117V/K175M/K195N/K70R/L47V/L54V/L88M/L99Q/M102K/N193R/N227D/P142E/P291S/Q151K/Q38R/Q45L/S2A/S58T/T264A/V71I/Y165I/Y273L/Y87F); type: cell-based; parameters: expressed in transfected cells; host or cells: immortalized mouse dermal fibroblasts (iMDFs), ubiquitin promoter, constitutive; details: 500 nM
Target sequence in this assay (P0A3G2 other isoform, or with tags, fused parts or gaps with the stated changes): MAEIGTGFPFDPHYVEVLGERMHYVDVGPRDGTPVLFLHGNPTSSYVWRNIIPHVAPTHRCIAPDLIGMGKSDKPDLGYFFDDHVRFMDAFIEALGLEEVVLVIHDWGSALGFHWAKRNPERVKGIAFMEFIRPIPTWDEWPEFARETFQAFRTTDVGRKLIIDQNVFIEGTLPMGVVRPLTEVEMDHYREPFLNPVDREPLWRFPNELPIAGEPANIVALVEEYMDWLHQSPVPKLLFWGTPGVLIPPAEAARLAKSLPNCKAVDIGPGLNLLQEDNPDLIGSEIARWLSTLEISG
Target sequence in this assay (Q9GV45 other isoform, or with tags, fused parts or gaps with the stated changes): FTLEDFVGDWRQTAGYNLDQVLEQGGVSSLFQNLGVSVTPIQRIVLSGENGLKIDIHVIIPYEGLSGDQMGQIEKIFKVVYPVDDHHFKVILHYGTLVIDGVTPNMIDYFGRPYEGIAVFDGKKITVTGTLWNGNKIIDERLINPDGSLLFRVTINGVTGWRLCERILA
Target sequence in this assay (P62942 whole entry F37V, the tested form may be a part): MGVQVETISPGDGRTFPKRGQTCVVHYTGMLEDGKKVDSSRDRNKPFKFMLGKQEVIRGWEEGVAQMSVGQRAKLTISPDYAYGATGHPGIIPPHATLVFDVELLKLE

[3] = tested on: MLKL^−/−CASP8^−/− HT29 cells expressing MLKL-NLuc and caspase-8-FKBP^F36V; details: TNF+SM
[4] = target: T1, Halo-EGFP-NanoLuc-FKBP^F36V (H-E-N-F) fusion protein; type: cell-based; details: +dox; for Blank corrected (470-80) luminescence: single well replicates; for Blank corrected Raw Data (470-80): PROTAC 500nM, replicate wells
Target sequence in this assay (Q9GV45 other isoform, or with tags, fused parts or gaps with the stated changes): as the sequence (Q9GV45 other isoform, or with tags, fused parts or gaps with the stated changes) above
Target sequence in this assay (P0A3G2 other isoform, or with tags, fused parts or gaps with the stated changes): as the sequence (P0A3G2 other isoform, or with tags, fused parts or gaps with the stated changes) above
Target sequence in this assay (P62942 whole entry F37V, the tested form may be a part): as the sequence (P62942 whole entry F37V, the tested form may be a part) above

Question: How did the “viable cells (PI exclusion)” value (wild-type HT29 cells; TNF+SM+IDN) turn out when `CC[C@H](C(=O)N1CCCC[C@H]1C(=O)O[C@H](CCc1ccc(OC)c(OC)c1)c1ccccc1OCC(=O)NCCCCCCC(=O)N[C@H](C(=O)N1C[C@H](O)C[C@H]1C(=O)N[C@@H](C)c1ccc(-c2scnc2C)cc1)C(C)(C)C)c1cc(OC)c(OC)c(OC)c1` [FV1] was run?
Answer: 9.5 and 6.6 and 6.1

Question: And the “viable cells (PI exclusion)” value (wild-type HT29 cells; Unt (no death stimulus))?
Answer: 76.3 and 74.4 and 69.6

Question: What about the “TNF+911+zVAD (PI exclusion)” value ([1]; degrader 3.9nM) of the same compound?
Answer: 5.8 and 7 and 7.6

Question: What about the “TNF+911+zVAD (PI exclusion)” value ([1]; degrader 7.8nM) of the same compound?
Answer: 6.7 and 5.9 and 5.7

Question: And the “TNF+911+zVAD (PI exclusion)” value ([1]; degrader 31.25nM)?
Answer: 5.8 and 6 and 5.7

Question: And the “TNF+911+zVAD (PI exclusion)” value ([1]; degrader 62.5nM)?
Answer: 6.1 and 6.6 and 5.2

Question: And the “TNF+911+zVAD (PI exclusion)” value ([1]; degrader 250nM)?
Answer: 6.3 and 5.6 and 5.3

Question: What about the “TNF+911+zVAD (PI exclusion)” value ([1]; degrader 500nM) of the same compound?
Answer: 5.9 and 5.1 and 4.5

Question: What about the “TNF+911+zVAD (PI exclusion)” value ([1]; degrader 1000nM) of the same compound?
Answer: 5.8 and 4.9 and 5

Question: And the “time up to which degradation was seen, degrader left in the medium” value ([2]; 5, 24 or 48 h)?
Answer: up to 48 h

Question: What about the “time up to which degradation was maintained, degrader removed at 5 h” value ([2]; 24 or 48 h after removal) of the same compound?
Answer: up to 48 h

Question: And the “Cytotox-Red uptake (cell death), IncuCyte” value (“Cytotox-Red uptake” below) ([3]; elapsed 0 h)?
Answer: 162.812

Question: And the “Cytotox-Red uptake” value ([3]; elapsed 0.5 h)?
Answer: 163.75

Question: And the “Cytotox-Red uptake” value ([3]; elapsed 1 h)?
Answer: 172.188

Question: And the “Cytotox-Red uptake” value ([3]; elapsed 2 h)?
Answer: 261.562

Question: What about the “Cytotox-Red uptake” value ([3]; elapsed 3 h) of the same compound?
Answer: 541.625

Question: And the “Cytotox-Red uptake” value ([3]; elapsed 4 h)?
Answer: 907.75

Question: And the “Cytotox-Red uptake” value ([3]; elapsed 5 h)?
Answer: 1277

Question: What about the “Cytotox-Red uptake” value ([3]; elapsed 6 h) of the same compound?
Answer: 1576.88

Question: What about the “Cytotox-Red uptake” value ([3]; elapsed 6.5 h) of the same compound?
Answer: 1701.5

Question: And the “Cytotox-Red uptake” value ([3]; elapsed 7 h)?
Answer: 1872.81

Question: And the “Cytotox-Red uptake” value ([3]; elapsed 7.5 h)?
Answer: 1974.44

Question: And the “Cytotox-Red uptake” value ([3]; elapsed 8 h)?
Answer: 2103.31

Question: What about the “Cytotox-Red uptake” value ([3]; elapsed 9 h) of the same compound?
Answer: 2328

Question: And the “Cytotox-Red uptake” value ([3]; elapsed 9.5 h)?
Answer: 2410.25

Question: What about the “Cytotox-Red uptake” value ([3]; elapsed 10 h) of the same compound?
Answer: 2505.44

Question: And the “Cytotox-Red uptake” value ([3]; elapsed 10.5 h)?
Answer: 2578.38

Question: And the “Cytotox-Red uptake” value ([3]; elapsed 11 h)?
Answer: 2647

Question: And the “Cytotox-Red uptake” value ([3]; elapsed 12 h)?
Answer: 2777.19

Question: And the “Cytotox-Red uptake” value ([3]; elapsed 13 h)?
Answer: 2864.25

Question: What about the “Cytotox-Red uptake” value ([3]; elapsed 13.5 h) of the same compound?
Answer: 3026.81

Question: And the “Cytotox-Red uptake” value ([3]; elapsed 14 h)?
Answer: 2985.5

Question: What about the “Cytotox-Red uptake” value ([3]; elapsed 14.5 h) of the same compound?
Answer: 2992.62

Question: And the “Cytotox-Red uptake” value ([3]; elapsed 15 h)?
Answer: 3009.12

Question: And the “Cytotox-Red uptake” value ([3]; elapsed 16 h)?
Answer: 3103.38

Question: What about the “Cytotox-Red uptake” value ([3]; elapsed 17 h) of the same compound?
Answer: 3055.31

Question: What about the “Cytotox-Red uptake” value ([3]; elapsed 18 h) of the same compound?
Answer: 3042.38

Question: What about the “Cytotox-Red uptake” value ([3]; elapsed 19 h) of the same compound?
Answer: 3048.56

Question: And the “Cytotox-Red uptake” value ([3]; elapsed 19.5 h)?
Answer: 3013.69

Question: And the “Blank corrected (470-80) luminescence” value ([4]; 3.9nM PROTAC)?
Answer: 31936 and 32480 and 32608 and 31981

Question: And the “Blank corrected (470-80) luminescence” value ([4]; 7.8nM PROTAC)?
Answer: 24693 and 21134 and 25624 and 20591

Question: What about the “Blank corrected (470-80) luminescence” value ([4]; 31.25nM PROTAC) of the same compound?
Answer: 9757 and 8948 and 8891 and 8313

Question: What about the “Blank corrected (470-80) luminescence” value ([4]; 62.5nM PROTAC) of the same compound?
Answer: 5245 and 5647 and 5355 and 5575

Question: And the “Blank corrected (470-80) luminescence” value ([4]; 250nM PROTAC)?
Answer: 2257 and 3039 and 2286 and 2469

Question: And the “Blank corrected (470-80) luminescence” value ([4]; 500nM PROTAC, 5h)?
Answer: 3865 and 3357 and 3449 and 3849

Question: What about the “Blank corrected (470-80) luminescence” value ([4]; 500nM PROTAC, 8h) of the same compound?
Answer: 4070 and 3846 and 4184 and 2817

Question: And the “Blank corrected (470-80) luminescence” value ([4]; 500nM PROTAC, 24h)?
Answer: 5571 and 3433 and 4739

Question: What about the “Blank corrected (470-80) luminescence” value ([4]; 500nM PROTAC) of the same compound?
Answer: 1404 and 1634 and 1510 and 1568

Question: And the “Blank corrected (470-80) luminescence” value ([4]; 1uM PROTAC)?
Answer: 1692 and 1683 and 1666 and 1785

Question: What about the “Blank corrected Raw Data (470-80)” value ([4]; DMSO (control) co-treatment) of the same compound?
Answer: 1481 and 2747 and 2028

Question: What about the “Blank corrected Raw Data (470-80)” value ([4]; co-treatment with MG132 (10uM)) of the same compound?
Answer: 32421 and 46504 and 47437 and 52425
